These results are taken from US11130769B2 (Prelude Therapeutics Incorporated, priority 2018, dated 2021).

In one test the test system is H929 cells. The test can be described thus: Cell viability assay (H929 10 FBS). Type of test: cell-based. The settings on record: Homo sapiens, NCI-H929, 24 hours, read-out: H929_10FBS IC50. An outline of the steps: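 ATP-based luminescence (CellTiter-Glo or ATPlite 1 Step, 30-60 min at RT) gauged viability of H929 myeloma cells after 24 h compound treatment at 37 °C. Cells plated at 4000 per well in 10% FBS RPMI 1640 supplemented with pyruvate, HEPES and glucose.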

In a further test the target is MCL-1 (Homo sapiens (Human), UniProt Q07820). The test can be described thus: Cell free Mcl-1:Bim affinity assay (fluorescence polarization competition). The settings on record: 15 nM MCL-1, 5 nM FITC-Bim, 1 hour at room temperature; class symbols; read-out: BIM_Ki. Type of test: binding. An outline of the steps:
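Fluorescence polarization competition: 10-point 3-fold compound dilutions displaced 5 nM FITC-Bim from 15 nM MCL-1 over 1 h at room temperature. Ki was derived from the fitted IC50 using the Nikolovska-Coleska equation, with percent inhibition normalized to DMSO and positive controls.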

A word on the IC50: it is the concentration that gives 50% inhibition.

Sequence of MCL-1 (Q07820 whole entry): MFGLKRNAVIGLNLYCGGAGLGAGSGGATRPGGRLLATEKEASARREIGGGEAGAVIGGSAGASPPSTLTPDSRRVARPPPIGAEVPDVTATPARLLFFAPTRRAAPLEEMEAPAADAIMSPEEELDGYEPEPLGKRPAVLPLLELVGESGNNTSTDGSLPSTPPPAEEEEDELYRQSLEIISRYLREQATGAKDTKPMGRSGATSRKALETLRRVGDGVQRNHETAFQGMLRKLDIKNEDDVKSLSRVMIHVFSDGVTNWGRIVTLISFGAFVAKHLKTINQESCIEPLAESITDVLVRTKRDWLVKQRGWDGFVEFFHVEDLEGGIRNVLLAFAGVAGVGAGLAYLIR

For `CN(C)[C@@H]1CCN(C(=O)O[C@H]2/C=C/COC(C)(C)C(=O)NS(=O)(=O)c3ccc4c(c3)N(C[C@@H]3CC[C@H]32)C[C@@]2(CCCc3cc(Cl)ccc32)CO4)C1` [Example 53, [(3R,6R,7S,8E,22S)-6′-Chloro-12,12-dimethyl-13,15,15-trioxo-spiro[11,20-dioxa-15-thia-1,14-diazatetracyclo[14.7.2.03,6.019,24]pentacosa-8,16,18,24-tetraene-22,1′-tetralin]-7-yl] (3R)-3-(dimethylamino)pyrrolidine-1-carboxylate], in the test with H929 cells, the IC50 is less than 500 nM. Further, the Ki at MCL-1 is less than 1 nM.

On to `CO[C@@H]1/C=C/CCC2(CCC2)C(=O)NS(=O)(=O)c2ccc3c(c2)N(C[C@@H]2CC[C@H]21)C[C@@]1(CCCc2cc(Cl)ccc21)CO3` [Example 86, (3R,6R,7R,8E,22S)-6′-Chloro-7-methoxy-12,12-(1,3-propylene)-15,15-dioxo-spiro[[20]oxa-15-thia-1,14-diazatetracyclo[14.7.2.03,6.019,24]pentacosa[8,16(25),17,19(24)]tetraene-22,1′-tetralin]-13-one], for which the IC50 with H929 cells is more than 1000 nM. Moreover, the Ki at MCL-1 lay within 1 to 100 nM.

Consider `CC(C)NC(=O)O[C@H]1/C=C/COC(C)(C)C(=O)NS(=O)(=O)c2ccc3c(c2)N(C[C@@H]2CC[C@H]21)C[C@@]1(CCCc2cc(Cl)ccc21)CO3` [Example 181, [(3R,6R,7S,8E,22S)-6′-Chloro-12,12-dimethyl-13,15,15-trioxo-spiro[11,20-dioxa-15-thia-1,14-diazatetracyclo[14.7.2.03,6.019,24]pentacosa-8,16,18,24-tetraene-22,1′-tetralin]-7-yl] N-isopropylcarbamate], for which, in the test on H929 cells, the IC50 was less than 500 nM. For the same molecule, the Ki at MCL-1 is less than 1 nM.

Consider `CO[C@@H]1/C=C/CN(C)CC2(CCC2)C(=O)NS(=O)(=O)c2ccc3c(c2)N(C[C@@H]2CC[C@H]21)C[C@@]1(CCCc2cc(Cl)ccc21)CO3` [Example 27, (3R,6R,7R,8E,23S)-6′-Chloro-7-methoxy-11-methyl-13,13-(1,3-propylene)-16,16-dioxo-spiro[21-oxa-16-thia-1,11,15-triazatetracyclo[15.7.2.03,6.020,25]hexacosa[8,17(26),18,20(25)]tetraene-23,1′-tetralin]-14-one], for which the IC50 in the test on H929 cells is more than 1000 nM. For the same molecule, the Ki at MCL-1 was in the range of 1 to 100 nM.

Regarding `CC1(C)OC/C=C/[C@H](OCC(=O)N2CC(F)C2)[C@@H]2CC[C@H]2CN2C[C@@]3(CCCc4cc(Cl)ccc43)COc3ccc(cc32)S(=O)(=O)NC1=O` [Example 281, (3R,6R,7S,8E,22S)-6′-Chloro-7-[2-(3-fluoroazetidin-1-yl)-2-oxo-ethoxy]-12,12-dimethyl-15,15-dioxo-spiro[11,20-dioxa-15-thia-1,14-diazatetracyclo[14.7.2.03,6.019,24]pentacosa-8,16,18,24-tetraene-22,1′-tetralin]-13-one], the IC50 in the test on H929 cells was less than 500 nM. For the same molecule, the Ki on MCL-1 was less than 1 nM.

For the molecule `COCCNC(=O)O[C@H]1/C=C/COC(C)(C)C(=O)NS(=O)(=O)c2ccc3c(c2)N(C[C@@H]2CC[C@H]21)C[C@@]1(CCCc2cc(Cl)ccc21)CO3` [Example 191, [(3R,6R,7S,8E,22S)-6′-Chloro-12,12-dimethyl-13,15,15-trioxo-spiro[11,20-dioxa-15-thia-1,14-diazatetracyclo[14.7.2.03,6.019,24]pentacosa-8,16,18,24-tetraene-22,1′-tetralin]-7-yl] N-(2-methoxyethyl)carbamate], the IC50 in the test with H929 cells was less than 500 nM. The Ki at MCL-1 was less than 1 nM.

Turning to `CN[C@@H]1CCN(C(=O)O[C@H]2/C=C/COC(C)(C)C(=O)NS(=O)(=O)c3ccc4c(c3)N(C[C@@H]3CC[C@H]32)C[C@@]2(CCCc3cc(Cl)ccc32)CO4)C1` [Example 164, [(3R,6R,7S,8E,22S)-6′-Chloro-12,12-dimethyl-13,15,15-trioxo-spiro[11,20-dioxa-15-thia-1,14-diazatetracyclo[14.7.2.03,6.019,24]pentacosa-8,16,18,24-tetraene-22,1′-tetralin]-7-yl] (3R)-3-(methylamino)pyrrolidine-1-carboxylate], in the test on H929 cells, the IC50 was less than 500 nM. For the same molecule, at MCL-1, the Ki was less than 1 nM.

As for `CN(C)C(=O)O[C@H]1/C=C\COC(C)(C)C(=O)NS(=O)(=O)c2ccc3c(c2)N(C[C@@H]2CC[C@H]21)C[C@@]1(CCCc2cc(Cl)ccc21)CO3` [Example 35, [(3R,6R,7S,8Z,22S)-6′-Chloro-12,12-dimethyl-13,15,15-trioxo-spiro[11,20-dioxa-15-thia-1,14-diazatetracyclo[14.7.2.03,6.019,24]pentacosa-8,16,18,24-tetraene-22,1′-tetralin]-7-yl] N,N-dimethylcarbamate], the IC50 in the test on H929 cells was more than 1000 nM. In addition, the Ki on MCL-1 was in the range of 1 to 100 nM.

On to `CN1C/C=C/[C@H](OC(=O)N2CCC2)[C@@H]2CC[C@H]2CN2C[C@@]3(CCCc4cc(Cl)ccc43)COc3ccc(cc32)S(=O)(=O)NC(=O)C1(C)C` [Example 216, [(3R,6R,7S,8E,22S)-6′-Chloro-11,12,12-trimethyl-13,15,15-trioxo-spiro[20-oxa-15-thia-1,11,14-triazatetracyclo[14.7.2.03,6.019,24]pentacosa-8,16,18,24-tetraene-22,1′-tetralin]-7-yl]azetidine-1-carboxylate], for which, in the test on H929 cells, the IC50 was less than 500 nM. On MCL-1, the Ki is less than 1 nM.

As for `CN(C)C(=O)CO[C@@H]1/C=C/COC2(CC2)C(=O)NS(=O)(=O)c2ccc3c(c2)N(C[C@@H]2CC[C@H]21)C[C@@]1(CCCc2cc(Cl)ccc21)CO3` [Example 143, 2-[(3R,6R,7R,8E,22S)-6′-Chloro-12,12-ethylene-13,15,15-trioxo-spiro[11,20-dioxa-15-thia-1,14-diazatetracyclo[14.7.2.03,6.019,24]pentacosa-8,16,18,24-tetraene-22,1′-tetralin]-7-yl]oxy-N,N-dimethyl-acetamide], the 50% inhibitory concentration (IC50) in the test on H929 cells is less than 500 nM. Also, the Ki at MCL-1 is less than 1 nM.

For `C[C@H]1C(=O)NS(=O)(=O)c2ccc3c(c2)N(C[C@@H]2CC[C@H]2[C@@H](OC(=O)N(C)C)/C=C/CN1C)C[C@@]1(CCCc2cc(Cl)ccc21)CO3` [Example 147, [(3R,6R,7S,8E,12S,22S)-6′-Chloro-11,12-dimethyl-13,15,15-trioxo-spiro[20-oxa-15-thia-1,11,14-triazatetracyclo[14.7.2.03,6.019,24]pentacosa-8,16,18,24-tetraene-22,1′-tetralin]-7-yl] N,N-dimethylcarbamate], the half-inhibitory concentration (IC50) with H929 cells was less than 500 nM. Besides, the Ki at MCL-1 is less than 1 nM.

On to `CO[C@H]1/C=C/CC[C@@H](C)C(=O)NS(=O)(=O)c2ccc3c(c2)N(C[C@@H]2CC[C@H]21)C[C@@]1(CCCc2cc(Cl)ccc21)CO3` [Example 81, (3R,6R,7S,8E,12R,22S)-6′-Chloro-7-methoxy-12-methyl-15,15-dioxo-spiro[20-oxa-15-thia-1,14-diazatetracyclo[14.7.2.03,6.019,24]pentacosa-8,16(25),17,19(24)-tetraene-22,1′-tetralin]-13-one], for which, in the test on H929 cells, the IC50 is more than 1000 nM. The Ki on MCL-1 was 1 to 100 nM.

For the molecule `CN(C)C(=O)O[C@H]1/C=C/CN(C)C(C)(C)C(=O)NS(=O)(=O)c2ccc3c(c2)N(C[C@@H]2CC[C@H]21)C[C@@]1(CCCc2cc(Cl)ccc21)CO3` [Example 44, [(3R,6R,7S,8E,22S)-6′-chloro-11,12,12-trimethyl-13,15,15-trioxo-spiro[20-oxa-15-thia-1,11,14-triazatetracyclo[14.7.2.03,6.019,24]pentacosa-8,16,18,24-tetraene-22,1′-tetralin]-7-yl] N,N-dimethylcarbamate], the IC50 with H929 cells is less than 500 nM. Further, at MCL-1, the Ki is less than 1 nM.

For `CN1CCN(C(=O)O[C@H]2/C=C/COC(C)(C)C(=O)NS(=O)(=O)c3ccc4c(c3)N(C[C@@H]3CC[C@H]32)C[C@@]2(CCCc3cc(Cl)ccc32)CO4)CC1` [Example 189, [(3R,6R,7S,8E,22S)-6′-Chloro-12,12-dimethyl-13,15,15-trioxo-spiro[11,20-dioxa-15-thia-1,14-diazatetracyclo[14.7.2.03,6.019,24]pentacosa-8,16,18,24-tetraene-22,1′-tetralin]-7-yl] 4-methylpiperazine-1-carboxylate], in the test with H929 cells, the 50% inhibitory concentration (IC50) is less than 500 nM. Further, the Ki at MCL-1 was less than 1 nM.

As to `CCN(CC)CCO[C@H]1/C=C/COC(C)(C)C(=O)NS(=O)(=O)c2ccc3c(c2)N(C[C@@H]2CC[C@H]21)C[C@@]1(CCCc2cc(Cl)ccc21)CO3` [Example 268, (3R,6R,7S,8E,22S)-6′-Chloro-7-[2-(diethylamino)ethoxy]-12,12-dimethyl-15,15-dioxo-spiro[11,20-dioxa-15-thia-1,14-diazatetracyclo[14.7.2.03,6.019,24]pentacosa-8,16,18,24-tetraene-22,1′-tetralin]-13-one], the IC50 with H929 cells is less than 500 nM. At MCL-1, the Ki was less than 1 nM.

As to `COCC[C@H]1C(=O)NS(=O)(=O)c2ccc3c(c2)N(C[C@@H]2CC[C@H]2[C@H](OC)/C=C/C[C@@H]1C)C[C@@]1(CCCc2cc(Cl)ccc21)CO3` [Example 89, (3R,6R,7R,8E,11S,12R,22S)-6′-Chloro-7-methoxy-12-(2-methoxyethyl)-1-methyl-15,15-dioxo-spiro[20-oxa-15-thia-1,14-diazatetracyclo[14.7.2.03,6.019,24]pentacosa-8,16,18,24-tetraene-22,1′-tetralin]-13-one], in the test on H929 cells, the IC50 is more than 1000 nM. The Ki at MCL-1 lay within 1 to 100 nM.

Consider `CO[C@H]1CCN(C(=O)O[C@H]2/C=C/COC(C)(C)C(=O)NS(=O)(=O)c3ccc4c(c3)N(C[C@@H]3CC[C@H]32)C[C@@]2(CCCc3cc(Cl)ccc32)CO4)C1` [Example 195, [(3R,6R,7S,8E,22S)-6′-Chloro-12,12-dimethyl-13,15,15-trioxo-spiro[11,20-dioxa-15-thia-1,14-diazatetracyclo[14.7.2.03,6.019,24]pentacosa-8,16,18,24-tetraene-22,1′-tetralin]-7-yl] (3S)-3-methoxypyrrolidine-1-carboxylate], for which, in the test on H929 cells, the IC50 is less than 500 nM. Further, the Ki on MCL-1 is less than 1 nM.
